We go through 9 compounds from US20100204203A1, “Chemical Compounds 637: Pyridopyrimidinediones as PDE4 Inhibitors” (priority 2007, published 2010).

recombinant Human Phosphodiesterase B2 (PDE4B2), sequence (Q07343 1-564 isoform Q07343-2): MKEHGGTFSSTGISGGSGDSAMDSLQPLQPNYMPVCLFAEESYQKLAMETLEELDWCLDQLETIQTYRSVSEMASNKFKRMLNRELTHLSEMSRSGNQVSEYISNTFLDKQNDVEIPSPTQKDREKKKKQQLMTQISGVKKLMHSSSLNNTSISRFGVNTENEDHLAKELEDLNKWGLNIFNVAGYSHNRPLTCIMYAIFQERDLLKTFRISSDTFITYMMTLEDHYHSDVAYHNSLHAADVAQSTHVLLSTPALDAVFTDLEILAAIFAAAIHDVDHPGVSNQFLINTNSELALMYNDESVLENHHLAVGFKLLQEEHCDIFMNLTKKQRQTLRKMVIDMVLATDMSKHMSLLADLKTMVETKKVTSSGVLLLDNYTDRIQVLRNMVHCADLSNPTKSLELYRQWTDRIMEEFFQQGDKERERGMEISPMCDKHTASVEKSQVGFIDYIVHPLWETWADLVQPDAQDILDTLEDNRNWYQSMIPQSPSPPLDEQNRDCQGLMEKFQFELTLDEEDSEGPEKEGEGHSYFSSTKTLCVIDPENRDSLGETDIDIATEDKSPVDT

The target of the experiment is recombinant Human Phosphodiesterase B2 (PDE4B2) (Homo sapiens, UniProt Q07343). Nature of the experiment: Human Phosphodiesterase B2 Radiometric Assay (yttrium silicate SPA beads, [3H]cyclic AMP). The class given is biochemical. The note with it: recombinant human PDE4B2, radiometric SPA assay, 8 nM [3H]cyclic AMP; read-out: PDE4B2 pIC50 (converted). The essentials:
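Compounds were preincubated 30 min at 30 °C with 0.1 mg/mL PDE4B2 in 50 mM HEPES pH 7.5, 8.3 mM MgCl2, 1.7 mM EGTA, 0.01% Brij 35. Then 8 nM [3H]cAMP was added for 20 min, stopped with yttrium silicate SPA beads plus 18 mM ZnSO4 capturing product 5′AMP; pIC50 by curve fitting.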
In the case of `O=C(N[C@H]1CC[C@@H](n2c(=O)c3cc(F)cnc3n(-c3cccc(-c4cccc(CN5CCOCC5)c4)c3)c2=O)CC1)c1cn2cc(F)ccc2n1` [Example 13, 6-fluoro-N-{cis-4-[6-fluoro-1-[3′-(morpholin-4-ylmethyl)biphenyl-3-yl]-2,4-dioxo-1,4-dihydropyrido[2,3-d]pyrimidin-3(2H)-yl]cyclohexyl}imidazo[1,2-a]pyridine-2-carboxamide.], the IC50 is 0.0631 nM.
Take `CCCCN(C)Cc1ccc(-c2cccc(-n3c(=O)n([C@H]4CC[C@@H](NC(=O)c5cn6c(n5)CCCC6)CC4)c(=O)c4cc(F)cnc43)c2)cc1` [Example 132, N-{cis-4-[1-(4′-{[butyl(methyl)amino]methyl}biphenyl-3-yl)-6-fluoro-2,4-dioxo-1,4-dihydropyrido[2,3-d]pyrimidin-3(2H)-yl]cyclohexyl}-5,6,7,8-tetrahydroimidazo[1,2-a]pyridine-2-carboxamide]: the IC50 was 0.0251 nM.
With `O=c1c2cc(F)cnc2n(-c2cccc(-c3ccc(O)cc3CN3CCOCC3)c2)c(=O)n1[C@H]1CC[C@@H](NCc2cc3ccccc3o2)CC1` [Example 279, 3-{cis-4-[(1-benzofuran-2-ylmethyl)amino]cyclohexyl}-6-fluoro-1-[4′-hydroxy-2′-(morpholin-4-ylmethyl)biphenyl-3-yl]pyrido[2,3-d]pyrimidine-2,4(1H,3H)-dione], the IC50 was 0.0398 nM.
The value for `Cc1cccc(C(=O)N[C@H]2CC[C@@H](n3c(=O)c4cc(F)cnc4n(-c4cccc(-c5ccc(CN6CCN(C(C)C)CC6)cc5)c4)c3=O)CC2)n1` [Example 242, N-{cis-4-[6-fluoro-1-{4′-[(4-isopropylpiperazin-1-yl)methyl]biphenyl-3-yl}-2,4-dioxo-1,4-di-hydropyrido[2,3-d]pyrimidin-3(2H)-yl]cyclohexyl}-6-methyl-pyridine-2-carboxamide] was 0.00631 nM; that for `O=C(N[C@H]1CC[C@@H](n2c(=O)c3cc(F)cnc3n(-c3cccc(-c4ccc(CCN5CCNCC5)cc4)c3)c2=O)CC1)c1cn2cc(F)ccc2n1` [Example 102, 6-fluoro-N-{cis-4-[6-fluoro-2,4-dioxo-1-[4′-(2-piperazin-1-ylethyl)biphenyl-3-yl]-1,4-dihydropyrido[2,3-d]pyrimidin-3 (2H)-yl]cyclohexyl}imidazo[1,2-c]pyridine-2-carboxamide] was 0.00794 nM.
Regarding `O=C(N[C@H]1CC[C@@H](n2c(=O)c3cc(F)cnc3n(-c3cccc(-c4ccc(CN5CCN(C6CCCC6)CC5)cc4)c3)c2=O)CC1)c1cn2c(n1)CCCC2` [Example 221, N-{cis-4-[1-{4′-[(4-cyclopentylpiperazin-1-yl)methyl]biphenyl-3-yl}-6-fluoro-2,4-dioxo-1,4-dihydropyrido[2,3-d]pyrimidin-3(2H)-yl]cyclohexyl}-5,6,7,8-tetrahydroimidazo[1,2-a]pyridine-2-carboxamide], the IC50 was 0.01 nM.
Regarding `Cc1cc(C(=O)N[C@H]2CC[C@@H](n3c(=O)c4cc(F)cnc4n(-c4cccc(-c5ccc(CN6CCN(CC(=O)N(C)C)CC6)cc5)c4)c3=O)CC2)nn1C` [Example 216], the IC50 was 0.0126 nM.
Next, `O=C(N[C@H]1CC[C@@H](n2c(=O)c3cc(F)cnc3n(-c3cccc(-c4ccccc4C(=O)O)c3)c2=O)CC1)c1cn2cc(F)ccc2n1` [Example 60, 3′-[6-fluoro-3-(cis-4-{[(6-fluoroimidazo[1,2-a]pyridin-2-yl)carbonyl]amino}cyclohexyl)-2,4-dioxo-3,4-dihydropyrido[2,3-d]pyrimidin-1(2H)-yl]biphenyl-2-carboxylic acid]: 6.31 nM; `O=c1c2cc(F)cnc2n(-c2cccc(-c3ccc(CN4CCCOCC4)cc3)c2)c(=O)n1[C@H]1CC[C@@H](N(Cc2cn3cc(F)ccc3n2)Cc2cn3cc(F)ccc3n2)CC1` [Example 339, 3-(cis-4-{bis[(6-fluoroimidazo[1,2-a]pyridin-2-yl)methyl]amino}cyclohexyl)-6-fluoro-1-[4′-(1,4-oxazepan-4-ylmethyl)biphenyl-3-yl]pyrido[2,3-d]pyrimidine-2,4(1H,3H)-dione]: 0.0398 nM.
